This test has as its system B6C3F1 mice, intracerebral ependymoblastoma, median survival T/C. Nature of the test: NCI In Vivo Anticancer Drug Screen. Data for tumor model Ependymoblastoma (intracerebral) in B6C3F1 mice. The following applies: endpoint: median survival time, higher = longer survival. The protocol: The antitumor activity of compounds was measured in mice bearing transplantable tumors. Survival or tumor size were measured and the results are expressed as the measurement made in the treated group (T) divided by the measurement made in the vehicle treated control group (C). The tumor model used in this assay is Ependymoblastoma (intracerebral) in B6C3F1 mice

The mark [1] stands for this setting: dose: 0.06 mg/kg/injection, schedule: Q01DX005 (ip), vehicle: saline.
Where [2] appears, read: dose: 0.12 mg/kg/injection, schedule: Q01DX005 (ip), vehicle: saline.
[3] abbreviates: dose: 16.0 mg/kg/injection, schedule: Q01DX005 (ip), vehicle: saline with Tween-80.
Setting [4] is: dose: 8.0 mg/kg/injection, schedule: Q01DX005 (ip), vehicle: saline.
[5] abbreviates: dose: 16.0 mg/kg/injection, schedule: Q01DX005 (ip), vehicle: saline.
[6] abbreviates: dose: 32.0 mg/kg/injection, schedule: Q01DX005 (ip), vehicle: saline.
Setting [7] is: dose: 0.5 mg/kg/injection, schedule: Q01DX005 (ip), vehicle: saline.
Setting [8] is: dose: 1.0 mg/kg/injection, schedule: Q01DX005 (ip), vehicle: saline.
Where [9] appears, read: dose: 2.0 mg/kg/injection, schedule: Q01DX005 (ip), vehicle: saline.

Seven compounds from PubChem BioAssay AID226 (DTP/NCI, 2004) can be followed below.

“And” between values parts separate entries of the source, which are not always exact repeats. Identical values can stand only once. Inconclusive results and toxic doses are left out.

Take `CN(C)CCCNc1c2ccccc2nc2cccc([N+](=O)[O-])c12`: the T/C is, setting by setting: (dose: 0.06 mg/kg/injection, schedule: Q01DX001 (oral), vehicle: saline) 102 % of control; under setting [1], 103 % of control and 105 % of control and 112 % of control; (dose: 0.12 mg/kg/injection, schedule: Q01DX001 (oral), vehicle: saline) 98 % of control; under setting [2], 92 % of control; (dose: 0.13 mg/kg/injection, schedule: Q01DX005 (ip), vehicle: saline) 102 % of control; (dose: 0.25 mg/kg/injection, schedule: Q01DX001 (oral), vehicle: saline) 103 % of control. Besides, the T/C runs as follows: (dose: 0.5 mg/kg/injection, schedule: Q01DX001 (oral), vehicle: saline) 100 % of control; (dose: 1.0 mg/kg/injection, schedule: Q01DX001 (oral), vehicle: saline) 108 % of control; (dose: 2.0 mg/kg/injection, schedule: Q01DX001 (oral), vehicle: saline) 108 % of control; (dose: 4.0 mg/kg/injection, schedule: Q01DX001 (oral), vehicle: saline) 103 % of control; (dose: 16.0 micrograms/kg/injection, schedule: Q01DX005 (ip), vehicle: saline) 100 % of control and 110 % of control; (dose: 32.0 micrograms/kg/injection, schedule: Q01DX005 (ip), vehicle: saline) 100 % of control and 102 % of control. Besides, the T/C was 97 % of control and 104 % of control (dose: 63.0 micrograms/kg/injection, schedule: Q01DX005 (ip), vehicle: saline); 100 % of control and 106 % of control (dose: 125.0 micrograms/kg/injection, schedule: Q01DX005 (ip), vehicle: saline).

As for `O=NN(CCCl)C(=O)NCCCl`, the T/C by setting is: (dose: 0.5 mg/kg/injection, schedule: Q01DX009 (ip), vehicle: saline with Tween-80) 114 % of control; (dose: 1.0 mg/kg/injection, schedule: Q01DX001 (ip), vehicle: saline) 96 % of control and 105 % of control; (dose: 1.0 mg/kg/injection, schedule: Q01DX005 (ip), vehicle: saline + alcohol) 100 % of control and 115 % of control; (dose: 1.0 mg/kg/injection, schedule: Q01DX005 (ip), vehicle: saline with Tween-80) 99 % of control and 103 % of control; (dose: 1.0 mg/kg/injection, schedule: Q01DX009 (ip), vehicle: saline with Tween-80) 118 % of control; (dose: 2.0 mg/kg/injection, schedule: Q01DX001 (ip), vehicle: saline) 96 % of control and 105 % of control. The T/C (dose: 2.0 mg/kg/injection, schedule: Q01DX005 (ip), vehicle: saline + alcohol) is 103 % of control and 107 % of control and 119 % of control; the T/C (dose: 2.0 mg/kg/injection, schedule: Q01DX005 (ip), vehicle: saline with Tween-80) is 93 % of control and 116 % of control; the T/C (dose: 2.0 mg/kg/injection, schedule: Q01DX009 (ip), vehicle: saline with Tween-80) is 153 % of control; the T/C (dose: 2.5 mg/kg/injection, schedule: Q01DX001 (ip), vehicle: saline with Tween-80) is 109 % of control; the T/C (dose: 4.0 mg/kg/injection, schedule: Q01DX001 (ip), vehicle: saline) was 106 % of control and 111 % of control; the T/C (dose: 4.0 mg/kg/injection, schedule: Q01DX005 (ip), vehicle: saline + alcohol) is 170 % of control. In addition, the T/C is, setting by setting: (dose: 4.0 mg/kg/injection, schedule: Q01DX009 (ip), vehicle: saline with Tween-80) 241 % of control; (dose: 5.0 mg/kg/injection, schedule: Q01DX001 (ip), vehicle: alcohol) 113 % of control; (dose: 5.0 mg/kg/injection, schedule: Q01DX001 (ip), vehicle: saline with Tween-80) 113 % of control; (dose: 7.5 mg/kg/injection, schedule: Q01DX001 (ip), vehicle: saline + alcohol) 107 % of control; (dose: 8.0 mg/kg/injection, schedule: Q01DX001 (ip), vehicle: saline) 108 % of control and 110 % of control; (dose: 8.0 mg/kg/injection, schedule: Q01DX005 (ip), vehicle: saline + alcohol) 204 % of control and 218 % of control. The T/C is, setting by setting: (dose: 8.0 mg/kg/injection, schedule: Q01DX005 (ip), vehicle: saline with Tween-80) 171 % of control and 240 % of control; (dose: 8.0 mg/kg/injection, schedule: Q01DX009 (ip), vehicle: saline with Tween-80) 106 % of control; (dose: 10.0 mg/kg/injection, schedule: Q01DX001 (ip), vehicle: saline with Tween-80) 99 % of control; (dose: 10.0 mg/kg/injection, schedule: Q01DX005 (ip), vehicle: saline with Tween-80) 214 % of control; (dose: 16.0 mg/kg/injection, schedule: Q01DX001 (ip), vehicle: saline) 150 % of control and 163 % of control; (dose: 16.0 mg/kg/injection, schedule: Q01DX005 (ip), vehicle: saline + alcohol) 376 % of control. In addition, the T/C is, setting by setting: under setting [3], 105 % of control; (dose: 20.0 mg/kg/injection, schedule: Q01DX001 (ip), vehicle: alcohol) 167 % of control; (dose: 20.0 mg/kg/injection, schedule: Q01DX001 (ip), vehicle: saline with Tween-80) 117 % of control; (dose: 24.0 mg/kg/injection, schedule: Q01DX001 (ip), vehicle: saline) 300 % of control; (dose: 30.0 mg/kg/injection, schedule: Q01DX001 (ip), vehicle: saline + alcohol) 177 % of control; (dose: 32.0 mg/kg/injection, schedule: Q01DX001 (ip), vehicle: saline) 196 % of control and 226 % of control. Also, the T/C was 215 % of control (dose: 40.0 mg/kg/injection, schedule: Q01DX001 (ip), vehicle: alcohol); 112 % of control (dose: 40.0 mg/kg/injection, schedule: Q01DX001 (ip), vehicle: saline with Tween-80); 359 % of control (dose: 60.0 mg/kg/injection, schedule: Q01DX001 (ip), vehicle: saline + alcohol); 95 % of control (dose: 64.0 mg/kg/injection, schedule: Q01DX001 (ip), vehicle: saline).

Consider `COc1ccc(C[C@H](N)C(=O)NC2C(CO)OC(n3cnc4c(N(C)C)ncnc43)C2O)cc1` (stereo not given in full), for which the T/C was 101 % of control under setting [4]; 101 % of control under setting [5]; 103 % of control under setting [6]; 94 % of control (dose: 64.0 mg/kg/injection, schedule: Q01DX005 (ip), vehicle: saline); 102 % of control (dose: 128.0 mg/kg/injection, schedule: Q01DX005 (ip), vehicle: saline).

Take `O=C1C(NCCO)=C(N2CC2)C(=O)C(NCCO)=C1N1CC1`: the T/C under setting [1] is 112 % of control; the T/C under setting [2] was 113 % of control; the T/C (dose: 0.19 mg/kg/injection, schedule: Q01DX005 (ip), vehicle: saline) is 96 % of control; the T/C (dose: 0.25 mg/kg/injection, schedule: Q01DX005 (ip), vehicle: saline) is 91 % of control and 120 % of control; the T/C (dose: 0.38 mg/kg/injection, schedule: Q01DX005 (ip), vehicle: saline) is 100 % of control; the T/C under setting [7] is 106 % of control. In addition, the T/C (dose: 0.75 mg/kg/injection, schedule: Q01DX005 (ip), vehicle: saline) is 117 % of control; the T/C under setting [8] was 114 % of control; the T/C (dose: 1.5 mg/kg/injection, schedule: Q01DX005 (ip), vehicle: saline) was 120 % of control; the T/C under setting [9] is 110 % of control.

For `O=c1[nH]cc(F)c(=O)[nH]1`, the T/C reads like this: under setting [7], 108 % of control; under setting [8], 108 % of control; under setting [9], 111 % of control; (dose: 4.0 mg/kg/injection, schedule: Q01DX005 (ip), vehicle: saline) 113 % of control; under setting [4], 105 % of control; under setting [5], 105 % of control. Under setting [6], the T/C is 120 % of control.

`CN(C)N=Nc1ccc(C(N)=O)cc1`: the T/C under setting [3] is 156 % of control and the T/C (dose: 32.0 mg/kg/injection, schedule: Q01DX005 (ip), vehicle: saline with Tween-80) was 162 % of control.

With `Nc1nc(SCc2ccccc2Cl)c2ncn(C3OC(CO)C(O)C3O)c2n1` (stereo not given), the T/C was 103 % of control and 104 % of control (dose: 12.5 mg/kg/injection, schedule: Q01DX005 (ip), vehicle: Klucel (hydroxypropylcellulose) (HPC)); 98 % of control (dose: 25.0 mg/kg/injection, schedule: Q01DX005 (ip), vehicle: Klucel (hydroxypropylcellulose) (HPC)); 110 % of control and 119 % of control (dose: 50.0 mg/kg/injection, schedule: Q01DX005 (ip), vehicle: Klucel (hydroxypropylcellulose) (HPC)).
